The text below walks through data of patent US20050058600A1, “3,3'-Diindolylmethane antiandrogenic compositions” (priority 2003, published 2005).

Experiment [1] deals with PC-3 cells. The experiment is described as follows: PC-3 cell growth (cell counting). Particulars: 96 h treatment; same concentrations (up to 50 μM). The format is cell-based, human. The protocol: DIM was prepared from I3C as described (26-28) and recrystallized in toluene. The human prostate adenocarcinoma cell lines LNCaP-FGC and PC-3 were obtained from the American Type Culture Collection (Rockville, Md.). They were grown as adherent monolayers in 10% FBS-DMEM, supplemented with 4.0 g/L glucose and 3.7 g/L sodium bicarbonate in a humidified incubator at 37° C. and 5% CO2 and passaged at approximately 80% confluency. Cultures used in subsequent experiments were at less than 40 passages. Cells grown in stripped conditions were in 5% DCC-FBS-DMEM base supplemented with 4.0 g/L glucose, 3.7 g/L sodium bicarbonate, and 0.293 g/L L-Glutamine.
Cell Growth. Before the beginning of the treatments, cells were depleted of androgen for 4-7 d in medium composed of DMEM base without phenol-red and with 4.0 g/L glucose and 3.7 g/L sodium bicarbonate. During the depletion period, medium was changed every 48 h. Treatments were administered by addition of 1 μL of 1,000× solution in DMSO per mL of medium. Once the treatment period started, medium was changed daily to counter possible loss of readily metabolized compounds.
Cell Counting. Cells were harvested by trypsinization and resuspended in culture medium. Aliquots were diluted 50-fold in Isoton II (Coulter Corp., Miami, Fla.) and 200 μL duplicates were counted in a model Z1 Coulter particle counter and averaged.

In experiment [2] the test system is LNCaP cells. The experiment is described as follows: [3H]Thymidine incorporation (DNA synthesis) in LNCaP cells. Format: cell-based, human. Particulars: uninduced and androgen-induced (1 nM DHT) growth conditions. In general terms: Uptake of a labelled nucleoside into DNA is a usual measure of proliferation.
Experiment [3] deals with PSA protein. The experiment is described as follows: Western blot of intracellular and secreted PSA in LNCaP cells. Format: cell-based, human. As to conditions: DHT co-treatment. The protocol: Analysis of Intracellular and Secreted PSA. LNCaP cells growing on 100 mm plates were treated for 24 h. Cells were lysed as previously described (20) for intracellular PSA analysis. For secreted proteins, spent medium was collected and concentrated 18-fold using Millipore Centriprep YM-10 following manufacturer's protocol (Bedford, Mass.). Protease inhibitors were added and the proteins were immunoprecipitated with 3 μg/mL monoclonal free PSA antibody (Biodesign International) for 2 h and co-immunoprecipitated overnight at 4° C. with Protein A/G agarose (Santa Cruz Biotechnology, Santa Cruz, Calif.) on a rotator. The samples were then subjected to Western blot analysis as described previously (20) using a monoclonal PSA (sc-7316) primary antibody and a goat anti-mouse-IgG-AP secondary antibody.
(Immunoblotting shows a protein as a band on a membrane.)

The target in experiment [4] is T1, AR (Homo sapiens, UniProt P10275, T878A).
T1 construct: 95 μL of either LNCaP cell extracts or recombinant AR protein; endogenous in cells; host or cells: LNCaP
T1 sequence (P10275 1-920 T878A): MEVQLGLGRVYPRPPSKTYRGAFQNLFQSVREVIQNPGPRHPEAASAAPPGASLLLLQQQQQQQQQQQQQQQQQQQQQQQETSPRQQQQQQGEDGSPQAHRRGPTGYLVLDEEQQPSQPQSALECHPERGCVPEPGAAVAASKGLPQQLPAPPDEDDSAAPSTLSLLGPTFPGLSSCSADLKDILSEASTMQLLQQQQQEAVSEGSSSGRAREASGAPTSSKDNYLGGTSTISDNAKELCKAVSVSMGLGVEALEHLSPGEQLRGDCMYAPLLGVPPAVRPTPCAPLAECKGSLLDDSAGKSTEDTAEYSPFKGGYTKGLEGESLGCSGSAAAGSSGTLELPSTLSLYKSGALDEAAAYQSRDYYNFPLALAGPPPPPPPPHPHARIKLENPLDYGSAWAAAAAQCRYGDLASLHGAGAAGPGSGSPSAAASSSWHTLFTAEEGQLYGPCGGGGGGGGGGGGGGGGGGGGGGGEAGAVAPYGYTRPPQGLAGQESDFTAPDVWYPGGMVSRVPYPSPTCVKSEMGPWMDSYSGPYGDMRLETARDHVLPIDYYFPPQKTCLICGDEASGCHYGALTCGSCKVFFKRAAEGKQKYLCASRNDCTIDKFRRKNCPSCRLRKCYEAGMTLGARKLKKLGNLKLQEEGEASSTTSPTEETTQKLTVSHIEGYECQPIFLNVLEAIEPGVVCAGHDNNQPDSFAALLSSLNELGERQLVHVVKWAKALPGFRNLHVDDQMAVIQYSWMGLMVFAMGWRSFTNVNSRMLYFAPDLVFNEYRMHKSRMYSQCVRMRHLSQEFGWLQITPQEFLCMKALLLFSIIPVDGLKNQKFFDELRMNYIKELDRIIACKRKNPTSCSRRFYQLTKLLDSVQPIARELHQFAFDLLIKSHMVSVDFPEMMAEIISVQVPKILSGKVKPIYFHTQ
The experiment is described as follows: MMTV-Luc / pPSA-Luc reporter assay in LNCaP cells. Format: cell-based. The protocol: Plasmid Reporters and Expression Vectors. The ARE responsive luciferase reporter plasmid, pPSA-630 luciferase (pPSA-Luc) was prepared as previously described (29). pPSA-Luc contains the PSA promoter region (−630 to 12) with three AREs, all of which are critical to the activity of the pPSA-Luc promoter. The MMTV-Luc contains one consensus ARE and the expression vector, pCMV-hAR constitutively expresses a fully functional human androgen receptor. The pCMV-GFP-rAR was prepared as previously described (30).
Transient Transfections with Reporters and Luciferase Assay. LNCaP and PC-3 cells were transfected, with some modifications, as previously described (20). For AR transactivation, cells were transfected with 0.1 μg of MMTV-Luc or pPSA-Luc per plate. Co-transfection experiments with pCMV-hAR or pCMV-GFP-rAR, 0.1 μg per plate was also used. For experiments involving GFP fluorescence imaging, treatments were not added until 30 h after transfection.
In general terms: In a reporter assay the amount or activity of a reporter protein is the signal.

For experiment [5], the system named is wild-type recombinant human AR. Description: Competitive [3H]DHT binding assay, recombinant AR protein. Particulars: micromolar concentration range.
Experiment [6] relates to breast cancer cells. As to conditions: in culture; cited from earlier work.

What is called inhibition is the drop in the measured response relative to a control, in per cent.

Where only a bound is given, the exact number is not on record here.

With `c1ccc2c(Cc3c[nH]c4ccccc34)c[nH]c2c1` [DIM, 3,3′-diindolylmethane], in experiment [1], the “effects on the growth of PC-3 cells” value is on record as “no observable effects”. For the same molecule, in experiment [2], the “inhibition of DNA synthesis” value was “up to 90%”. The “levels of intracellular and secreted PSA protein” value in experiment [3] is “reduced levels of intracellular and secreted PSA protein to background concentrations”. In addition, in experiment [4] (read-out: inhibition of DHT induction of androgen-responsive genes, 1 μM, both MMTV-Luc and pPSA-Luc), the inhibition at 1 µM is above 50%. In addition, the inhibition at 10 µM in experiment [4] (read-out: inhibition of DHT induction of androgen-responsive genes, 10 μM, both MMTV-Luc and pPSA-Luc) is above 90%. Further, the “transactivation of reporter genes by compound alone” value in experiment [4] (without DHT) was “failed to induce transactivation”. Besides, in experiment [5], the “competition with labeled DHT for binding to the AR” value is reported as “competes with labeled DHT for binding to the AR”. For the same molecule, in experiment [6], the “programmed cell death in human breast tumor cells” value was “induced programmed cell death” and the “proliferation of breast cancer cells” value was “inhibit proliferation”.
